What was measured:
HCT-116 [1] = assay: Cell cycle arrest in human HCT116 cells assessed as accumulation at G1 phase at 10 uM after 24 hrs; format: functional
HCT-116 [2] = assay: Cell cycle arrest in human HCT116 cells assessed as accumulation at G1 phase at 5 uM after 24 hrs; format: functional
HCT-116 [3] = assay: Cell cycle arrest in human HCT116 cells assessed as accumulation at G1 phase at 20 uM after 24 hrs; format: functional
HL-60 = assay: Inhibition of cell growth in human HL60 cells; format: functional, cell-based
MCF7 = assay: Inhibition of cell growth in human MCF7 cells; format: functional, cell-based
HCT-116 [4] = assay: Inhibition of cell growth in human HCT116 cells; format: functional, cell-based
A549 = assay: Inhibition of cell growth in human A549 cells; format: functional, cell-based

## CC[C@@]12CCCN3CCc4c(n(c5ccccc45)[C@H](c4ccc(O)c5c4N[C@@H]4CC[C@@]6(CC)CCCN7CC[C@@]54[C@H]76)C1)[C@H]32 [BISLEUCONOTHINE A]
HCT-116 [1]
  Activity: 75.1%
HCT-116 [2]
  Activity: 72%
HCT-116 [3]
  Activity: 79.5%
HL-60
  IC50: 11 µM
MCF7
  IC50: 9.2 µM
HCT-116 [4]
  IC50: 5.7 µM
A549
  IC50: 7 µM
